Measured values taken from patent US8367695B2, “Condensed tetrahydroquinoline derivative and use thereof for medical purposes” (Mitsubishi Tanabe Pharma Corporation, priority 2007, dated 2013).

Molecular target: T1, Glucocorticoid Receptor (GR), CHO-GRE-Luc #35 cells (Cricetulus griseus, UniProt A0A9J7F8I2)
T1 sequence (A0A9J7F8I2 1-774): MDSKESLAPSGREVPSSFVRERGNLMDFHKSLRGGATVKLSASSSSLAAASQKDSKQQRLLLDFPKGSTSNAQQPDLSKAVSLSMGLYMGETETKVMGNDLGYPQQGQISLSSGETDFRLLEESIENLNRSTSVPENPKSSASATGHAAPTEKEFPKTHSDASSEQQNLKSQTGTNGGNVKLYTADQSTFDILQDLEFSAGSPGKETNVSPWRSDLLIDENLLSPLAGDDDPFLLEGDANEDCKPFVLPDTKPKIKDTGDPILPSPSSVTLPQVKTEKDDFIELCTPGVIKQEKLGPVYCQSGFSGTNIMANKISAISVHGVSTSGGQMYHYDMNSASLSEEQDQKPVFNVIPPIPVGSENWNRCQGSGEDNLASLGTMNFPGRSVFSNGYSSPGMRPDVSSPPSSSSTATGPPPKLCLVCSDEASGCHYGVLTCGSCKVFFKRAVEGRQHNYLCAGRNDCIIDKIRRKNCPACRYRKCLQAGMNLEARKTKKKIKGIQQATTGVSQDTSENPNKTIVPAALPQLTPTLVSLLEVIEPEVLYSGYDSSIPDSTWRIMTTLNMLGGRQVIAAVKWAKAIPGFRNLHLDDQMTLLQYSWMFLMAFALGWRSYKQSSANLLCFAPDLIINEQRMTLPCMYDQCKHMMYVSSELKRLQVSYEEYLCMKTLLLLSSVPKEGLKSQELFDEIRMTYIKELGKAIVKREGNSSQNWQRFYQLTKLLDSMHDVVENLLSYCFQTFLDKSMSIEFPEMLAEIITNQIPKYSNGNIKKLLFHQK
Assay: Glucocorticoid receptor function test using transgenic-recombinant cell (GRE-luciferase)
Type: cell-based
Conditions: against GR stimulation with 10 nM dexamethasone, luciferase, about 6 hr; read-out: GR (IC50: nM)
Description: Glucocorticoid Receptor Function Test Using Transgenic-Recombinant Cell
Transgenic-recombinant cell was prepared by our company (Yokohama, JP). In Hokkaido System Science Co., Ltd., a cis-element wherein two glucocorticoid responsive elements (GRE) present in the […] promoter region of mouse were connected in tandem was produced on order from synthetic DNA. The gene was incorporated into a plasmid vector having a gene encoding luciferase enzyme. The plasmid was incorporated into CHO-K1 cell to give a transfectant. The expression cell (CHO-GRE-Luc #35) produces luciferase instead of the object protein under regulation of a transcription region involved in the expression of the object protein. That is, using the cell, a substance that controls production of the object protein can be screened for by replacing the substance with the luciferase activity. Fetal Bovine Serum (FBS), L-glutamine, penicillin-streptomycin solution, PBS(−), trypsin-EDTA solution, Opti-MEM medium and G418 were obtained from GIBCO (Auckland, N.Z.). A 10 cm dish and DMEM:HAM′S F12 medium were obtained from IWAKI (Chiba, JP). A 96 well white plate was obtained from Corning (Corning, N.Y.). Bright-Glo was obtained from Promega (Madison, US). Dexamethasone was obtained from Sigma Chemicals (St. Louis, Mo.).
CHO-GRE-Luc #35 cells were cultured for several days in a 10 cm dish in a medium (10% FBS/DMEM:HAM'S F12/2.5 mM L-glutamine/50 U/mL penicillin/25 μg/mL streptomycin/500 μg/mL G418). Sub-confluent cells were washed with a suitable amount of PBS(−), 1 ml of Trypsin-EDTA was added and the cells were stood still in a CO2 incubator at 37° C. for 3 min. A 10-fold amount of Opti-MEM medium was added to give a suspension, which was placed in a centrifugal tube and centrifuged (25° C., 1,000 rpm, 5 min). The supernatant was removed, and the cells were suspended in 5 ml of Opti-MEM medium and counted.
Storage solutions (5-20 mM) of the compound were prepared with DMSO. The storage solutions were diluted with DMSO to 1 mM, and further diluted 100-fold with distilled water or Opti-MEM medium to give solutions. The preparations were diluted with 1% DMSO solution to each concentration. As GR agonist, 10 nM dexamethasone was used. 0.2% DMSO was present at the time of the function assay.
The prepared compound solutions (evaluation compound solution or 1% DMSO solution 10 μL+dexamethasone or 1% DMSO solution 10 μL) were added to the plate. After the addition, the place was stood still in a CO2 incubator at 37° C. for about 6 hr. After the reaction, Bright-Glo was added at 20 μL/well, and the mixture was gently shaken and measured by a microplate luminometer (Turner Designs Instrument).
The IC50 value (nM) of the evaluation compound against GR stimulation with dexamethasone was calculated using Prism 3.0 as an analysis software and assuming one-site competition.

SMILES	IC50 [nM]
C=C1C(C)(C)Nc2c(cc(-c3c(C)ncn3C)c3c2CCC3)C1(C)C [Example 29, 6-(3,5-dimethyl-3H-imidazol-4-yl)-2,2,4,4-tetramethyl-3-methylene-2,3,4,7,8,9-hexahydro-1H-cyclopenta[h]quinoline]	69
C=CCC1(C)C(=O)C(C)(C)Nc2c1cc(-c1c(C)noc1C)c1c2CCC1 (centres unmarked) [Example 51, 4-allyl-6-(3,5-dimethylisoxazol-4-yl)-2,2,4-trimethyl-2,3,4,7,8,9-hexahydro-1H-cyclopenta[h]quinolin-3-one]	33
